The values below are quoted from earlier work in patent US5621142A, “Aminoalkylcyclopropane derivatives” (Asahi Kasei Kogyo Kabushiki Kaisha, priority 1994, dated 1997).

Data set [1] relates to synaptosomal uptake of 5-HT. The note with it: Neuropharmacology, Vol. 24, No. 12, 1211-1219, 1985.
For data set [2], the system named is synaptosomal uptake of norepipephrine. The following applies: Neuropharmacology, Vol. 24, No. 12, 1211-1219, 1985.

For the molecule `CCN(CC)C(=O)C1(c2ccccc2)CC1CN.Cl` (centres unmarked) [compound (A), 1-phenyl-1-diethylaminocarbonyl-2-aminomethyl-cyclopropane hydrochloride], the “activity to inhibit the synaptosomal uptake of 5-HT” value in data set [1] is “has an activity to inhibit the synaptosomal uptake of norepipephrine and 5-HT”. Further, the “activity to inhibit the synaptosomal uptake of norepipephrine” value in data set [2] was “has an activity to inhibit the synaptosomal uptake of norepipephrine and 5-HT”.
